Laboratory results reported in patent US10246429B2, “Vinyl fluoride cyclopropyl fused thiazin-2-amine compounds as beta-secretase inhibitors and methods of use” (AMGEN INC., priority 2015, dated 2019).

Tests used:
BACE2 = BACE2 (Homo sapiens (Human), UniProt Q9Y5Z0); assay: In vitro enzymatic BACE2 FRET assay; type: biochemical; conditions: read-out: IC50 IP (μM) BACE2 Enzyme
Text: In Vitro Enzymatic BACE1 and BACE2 FRET (Fluorescence Resonance Energy Transfer) Assays (Enzyme Assay Data in Table 1)

Cathepsin D (CatD) = Cathepsin D (CatD) (Homo sapiens (Human), UniProt P07339); assay: CatD assay; type: biochemical; conditions: read-out: IC50 IP (μM) CatD
Chain of Cathepsin D (CatD) (P07339 65-412, species assumed): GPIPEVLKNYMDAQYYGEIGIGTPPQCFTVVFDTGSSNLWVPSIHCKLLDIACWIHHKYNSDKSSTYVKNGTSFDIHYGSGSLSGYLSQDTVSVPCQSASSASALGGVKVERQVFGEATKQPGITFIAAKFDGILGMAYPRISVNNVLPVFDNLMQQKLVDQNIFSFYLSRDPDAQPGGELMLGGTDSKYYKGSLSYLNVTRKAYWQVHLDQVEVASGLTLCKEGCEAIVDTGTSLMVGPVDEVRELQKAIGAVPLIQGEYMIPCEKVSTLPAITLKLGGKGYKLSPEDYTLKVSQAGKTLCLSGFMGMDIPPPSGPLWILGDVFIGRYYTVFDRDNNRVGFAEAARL

Chain of BACE2 (Q9Y5Z0 63-518): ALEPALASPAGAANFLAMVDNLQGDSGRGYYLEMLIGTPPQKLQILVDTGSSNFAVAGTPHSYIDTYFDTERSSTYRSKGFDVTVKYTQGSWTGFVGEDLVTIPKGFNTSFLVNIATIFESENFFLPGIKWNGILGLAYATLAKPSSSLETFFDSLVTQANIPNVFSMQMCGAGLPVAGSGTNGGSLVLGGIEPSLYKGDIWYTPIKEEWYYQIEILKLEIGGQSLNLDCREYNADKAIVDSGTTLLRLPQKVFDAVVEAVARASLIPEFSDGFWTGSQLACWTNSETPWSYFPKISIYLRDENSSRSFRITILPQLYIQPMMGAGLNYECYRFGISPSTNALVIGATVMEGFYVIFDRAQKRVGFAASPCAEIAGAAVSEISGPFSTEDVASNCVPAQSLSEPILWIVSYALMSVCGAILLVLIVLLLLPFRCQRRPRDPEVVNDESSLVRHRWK

SMILES | IC50 (BACE2) | IC50 (Cathepsin D (CatD))
CN(C)C(=O)[C@]12C[C@H]1[C@@](C)(c1cc(/C=C(\F)c3cc4nccnc4cn3)ccc1F)N=C(N)S2 [Example 247, (1S,5S,6S)-3-amino-5-(2-fluoro-5-((Z)-2-fluoro-2-(pyrido[3,4-b]pyrazin-7-yl)vinyl)phenyl)-N,N,5-trimethyl-2-thia-4-azabicyclo[4.1.0]hept-3-ene-1-carboxamide] | 0.385 µM | 1190 µM
COC[C@@]12SC(N)=N[C@](C)(c3cc(/C=C(\F)c4ccc(C#N)cn4)ccc3F)[C@@H]1C2(F)F [Example 258, 6-((Z)-2-(3-((1S,5S,6R)-3-amino-7,7-difluoro-1-(methoxymethyl)-5-methyl-2-thia-4-azabicyclo[4.1.0]hept-3-en-5-yl)-4-fluorophenyl)-1-fluorovinyl)nicotinonitrile] | 0.118 µM | 90.7 µM
CN(C)C(=O)[C@]12C[C@H]1[C@@](C)(c1cc(/C=C(\F)c3cnc(OCC(F)(F)F)cn3)ccc1F)N=C(N)S2 [Example 155, (1S,5S,6S)-3-amino-5-(2-fluoro-5-((Z)-2-fluoro-2-(5-(2,2,2-trifluoroethoxy)pyrazin-2-yl)vinyl)phenyl)-N,N,5-trimethyl-2-thia-4-azabicyclo[4.1.0]hept-3-ene-1-carboxamide] | 0.0823 µM | 167 µM
CN(C)C(=O)[C@]12C[C@H]1[C@@](C)(c1cc(/C=C(\F)c3ccc(C#N)nc3)ccc1F)N=C(N)S2 [Example 171, (1S,5S,6S)-3-amino-5-(5-((Z)-2-(6-cyanopyridin-3-yl)-2-fluorovinyl)-2-fluorophenyl)-N,N,5-trimethyl-2-thia-4-azabicyclo[4.1.0]hept-3-ene-1-carboxamide] | 0.642 µM | 824 µM
COC[C@]12C[C@H]1[C@@](C)(c1cc(/C=C(\F)c3cnc(OCC4CCO4)cn3)ccc1F)N=C(N)S2 (some centres unmarked) [Example 273] | 5.11 µM | 647 µM
COC[C@]12C[C@H]1[C@@](C)(c1cc(/C=C(\F)c3cnc(OCCC(F)(F)F)cn3)ccc1F)N=C(N)S2 [Example 268] | 1.55 µM | 245 µM
CN(C)C(=O)[C@]12C[C@H]1[C@@](C)(c1cc(/C=C(\F)c3ccc(C#N)cc3F)ccc1F)N=C(N)S2 [Example 172, (1S,5S,6S)-3-amino-5-(5-((Z)-2-(4-cyano-2-fluorophenyl)-2-fluorovinyl)-2-fluorophenyl)-N,N,5-trimethyl-2-thia-4-azabicyclo[4.1.0]hept-3-ene-1-carboxamide] | 0.146 µM | 202 µM
C[C@@H]1COCCN1C(=O)[C@]12C[C@H]1[C@@](C)(c1cc(/C=C(\F)c3ccc(C#N)cn3)cnc1F)N=C(N)S2 [Example 290, 6-((Z)-2-(5-((1S,5S,6S)-3-amino-5-methyl-1-((R)-3-methylmorpholine-4-carbonyl)-2-thia-4-azabicyclo[4.1.0]hept-3-en-5-yl)-6-fluoropyridin-3-yl)-1-fluorovinyl)nicotinonitrile] | 0.229 µM | 400 µM
COC[C@]12C[C@H]1[C@@](C)(c1cc(/C=C(\F)c3cnc(OCc4cc(C)no4)cn3)ccc1F)N=C(N)S2 [Example 276] | 0.966 µM | 156 µM
CC(Oc1cnc(/C(F)=C/c2ccc(F)c([C@@]3(C)N=C(N)S[C@@]4(C(=O)N(C)C)C[C@H]43)c2)cn1)c1ncco1 (stereo partly drawn) [Example 156, (1S,5S,6S)-3-amino-5-(2-fluoro-5-((Z)-2-fluoro-2-(5-(-1-(oxazol-2-yl)ethoxy)pyrazin-2-yl)vinyl)phenyl)-N,N,5-trimethyl-2-thia-4-azabicyclo[4.1.0]hept-3-ene-1-carboxamide] | 0.135 µM | 93.8 µM
C[C@]1(c2cc(/C=C(\F)c3ccc(C#N)cn3)ccc2F)N=C(N)S[C@@]2(C(=O)N3CCCC(C#N)C3)C[C@H]21 (stereo partly drawn) [Example 143, 6-((Z)-2-(3-((1S,5S,6S)-3-amino-1-(3-cyanopiperidine-1-carbonyl)-5-methyl-2-thia-4-azabicyclo[4.1.0]hept-3-en-5-yl)-4-fluorophenyl)-1-fluorovinyl)nicotinonitrile] | 0.0127 µM | 152 µM
COC(=O)[C@]12C[C@H]1[C@@](C)(c1cc(/C=C(\F)c3ccc(Cl)cn3)ccc1F)N=C(N)S2 [Example 111, (1S,5S,6S)-methyl 3-amino-5-(5-((Z)-2-(5-chloropyridin-2-yl)-2-fluorovinyl)-2-fluorophenyl)-5-methyl-2-thia-4-azabicyclo[4.1.0]hept-3-ene-1-carboxylate] | 0.102 µM | 734 µM
C[C@]1(c2cc(/C=C(\F)c3ccc(C#N)cn3)ccc2F)N=C(N)S[C@@]2(C(=O)N3CCN(c4ccccc4)CC3)C[C@H]21 [Example 131, 6-((Z)-2-(3-((1S,5S,6S)-3-amino-5-methyl-1-(4-phenylpiperazine-1-carbonyl)-2-thia-4-azabicyclo[4.1.0]hept-3-en-5-yl)-4-fluorophenyl)-1-fluorovinyl)nicotinonitrile] | 0.015 µM | 96.9 µM
C[C@]1(c2cc(/C=C(\F)c3ccc(C#N)cn3)ccc2F)N=C(N)S[C@@]2(C(=O)NC3CC3)C[C@H]21 [Example 121, (1S,5S,6S)-3-amino-5-(5-((Z)-2-(5-cyanopyridin-2-yl)-2-fluorovinyl)-2-fluorophenyl)-N-cyclopropyl-5-methyl-2-thia-4-azabicyclo[4.1.0]hept-3-ene-1-carboxamide] | 0.164 µM | 52.9 µM
C[C@@H]1CC[C@@H](C)N1C(=O)[C@]12C[C@H]1[C@@](C)(c1cc(/C=C(\F)c3ccc(C#N)cn3)ccc1F)N=C(N)S2 [Example 133, 6-((Z)-2-(3-((1S,5S,6S)-3-amino-1-((2R,5R)-2,5-dimethylpyrrolidine-1-carbonyl)-5-methyl-2-thia-4-azabicyclo[4.1.0]hept-3-en-5-yl)-4-fluorophenyl)-1-fluorovinyl)nicotinonitrile] | 0.099 µM | 146 µM
C#CCOc1cnc(/C(F)=C/c2cnc(F)c([C@@]3(C)N=C(N)S[C@@]4(C(=O)O)C[C@H]43)c2)cn1 [Example 285, (1S,5S,6S)-3-amino-5-(2-fluoro-5-((Z)-2-fluoro-2-(5-(prop-2-yn-1-yloxy)pyrazin-2-yl)vinyl)pyridin-3-yl)-5-methyl-2-thia-4-azabicyclo[4.1.0]hept-3-ene-1-carboxylic acid] | 6.35 µM | 316 µM
Cc1nnc(COc2cnc(/C(F)=C/c3ccc(F)c([C@@]4(C)N=C(N)S[C@@]5(S(C)(=O)=O)C[C@H]54)c3)cn2)o1 [Example 228, (1R,5S,6S)-5-(2-fluoro-5-((Z)-2-fluoro-2-(5-((5-methyl-1,3,4-oxadiazol-2-yl)methoxy)pyrazin-2-yl)vinyl)phenyl)-5-methyl-1-(methylsulfonyl)-2-thia-4-azabicyclo[4.1.0]hept-3-en-3-amine] | 0.292 µM | 46.3 µM
COC(=O)[C@]12C[C@H]1[C@@](C)(c1cc(/C=C(\F)c3ccc(Br)cn3)ccc1F)N=C(N)S2 [Example 105, (1S,5S,6S)-methyl 3-amino-5-(5-((Z)-2-(5-bromopyridin-2-yl)-2-fluorovinyl)-2-fluorophenyl)-5-methyl-2-thia-4-azabicyclo[4.1.0]hept-3-ene-1-carboxylate] | 0.127 µM | 302 µM
C[C@]1(c2cc(/C=C(\F)c3ccc(C#N)cn3)ccc2F)N=C(N)S[C@@]2(C(=O)N3CC[C@@H]4CCCC[C@H]4C3)C[C@H]21 [Example 135, 6-((Z)-2-(3-((1S,5S,6S)-3-amino-1-((4aS,8aR)-decahydroisoquinoline-2-carbonyl)-5-methyl-2-thia-4-azabicyclo[4.1.0]hept-3-en-5-yl)-4-fluorophenyl)-1-fluorovinyl)nicotinonitrile] | 0.00166 µM | 5.5 µM
CNC(=O)[C@]12C[C@H]1[C@@](C)(c1cc(/C=C(\F)c3ccc(Cl)cn3)ccc1F)N=C(N)S2 [Example 175, (1S,5S,6S)-3-amino-5-(5-((Z)-2-(5-chloropyridin-2-yl)-2-fluorovinyl)-2-fluorophenyl)-N,5-dimethyl-2-thia-4-azabicyclo[4.1.0]hept-3-ene-1-carboxamide] | 0.0364 µM | 204 µM
C[C@]1(c2cc(/C=C(\F)c3ccc(Cl)cn3)ccc2F)N=C(N)S[C@@]2(CO)C[C@H]21 [Example 113, ((1S,5S,6S)-3-amino-5-(5-((Z)-2-(5-chloropyridin-2-yl)-2-fluorovinyl)-2-fluorophenyl)-5-methyl-2-thia-4-azabicyclo[4.1.0]hept-3-en-1-yl)methanol] | 0.0339 µM | 400 µM
CC#CCOc1cnc(/C(F)=C/c2ccc(F)c([C@@]3(C)N=C(N)S[C@@]4(COC)C[C@H]43)c2)cn1 [Example 263] | 1.84 µM | 492 µM
COC[C@@H]1CCCN1C(=O)[C@]12C[C@H]1[C@@](C)(c1cc(/C=C(\F)c3ccc(Cl)cn3)ccc1F)N=C(N)S2 [Example 117, ((1S,5S,6S)-3-amino-5-(5-((Z)-2-(5-chloropyridin-2-yl)-2-fluorovinyl)-2-fluorophenyl)-5-methyl-2-thia-4-azabicyclo[4.1.0]hept-3-en-1-yl)((S)-2-(methoxymethyl)pyrrolidin-1-yl)methanone] | 0.0209 µM | 166 µM
CN(C)C(=O)[C@]12C[C@H]1[C@@](C)(c1cc(/C=C\F)ccc1F)N=C(N)S2 [Example 208, (1S,5S,6S)-3-amino-5-(2-fluoro-5-((Z)-2-fluorovinyl)phenyl)-N,N,5-trimethyl-2-thia-4-azabicyclo[4.1.0]hept-3-ene-1-carboxamide] | 0.117 µM | 9.28 µM
CC1CCCN(C(=O)[C@]23C[C@H]2[C@@](C)(c2cc(/C=C(\F)c4ccc(C#N)cn4)ccc2F)N=C(N)S3)C1 (stereo partly drawn) [Example 145, 6-((Z)-2-(3-((1S,5S,6S)-3-amino-5-methyl-1-(3-methylpiperidine-1-carbonyl)-2-thia-4-azabicyclo[4.1.0]hept-3-en-5-yl)-4-fluorophenyl)-1-fluorovinyl)nicotinonitrile] | 0.0174 µM | 42.6 µM
